Reference: ChEMBL document CHEMBL1201862, “PubChem BioAssay data set” (2004)
Active and inactive are the calls of the source. Cut-off read from the data, not from the text of the source, for most assays here: actives have a measured EC50 and inactives only a lower limit.

How the values were obtained:
H9c2 = assay: cells; format: functional, cell-based; conditions: Rattus norvegicus, H9c2, Myocardium;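 note: confirmatory concentration-response retest of ultra-high-throughput screening hits for modulation of myocardial damage; cell death induced by hydrogen peroxide oxidative stress; compound pretreatment for 60 min then peroxide exposure for 2 h; potency is for protecting the cells against peroxide damage rather than for killing them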
[1] = biological target: T1, Rac GTPase-activating protein 1 (Homo sapiens, UniProt Q9H0H5); assay: blockers of MgcRacGAP-driven Rac1 GTP hydrolysis – biochemical, ADP Hunter fluorescence, primary and confirmatory, confirmation (AID 624330); format: functional
T1 sequence (Q9H0H5 whole entry): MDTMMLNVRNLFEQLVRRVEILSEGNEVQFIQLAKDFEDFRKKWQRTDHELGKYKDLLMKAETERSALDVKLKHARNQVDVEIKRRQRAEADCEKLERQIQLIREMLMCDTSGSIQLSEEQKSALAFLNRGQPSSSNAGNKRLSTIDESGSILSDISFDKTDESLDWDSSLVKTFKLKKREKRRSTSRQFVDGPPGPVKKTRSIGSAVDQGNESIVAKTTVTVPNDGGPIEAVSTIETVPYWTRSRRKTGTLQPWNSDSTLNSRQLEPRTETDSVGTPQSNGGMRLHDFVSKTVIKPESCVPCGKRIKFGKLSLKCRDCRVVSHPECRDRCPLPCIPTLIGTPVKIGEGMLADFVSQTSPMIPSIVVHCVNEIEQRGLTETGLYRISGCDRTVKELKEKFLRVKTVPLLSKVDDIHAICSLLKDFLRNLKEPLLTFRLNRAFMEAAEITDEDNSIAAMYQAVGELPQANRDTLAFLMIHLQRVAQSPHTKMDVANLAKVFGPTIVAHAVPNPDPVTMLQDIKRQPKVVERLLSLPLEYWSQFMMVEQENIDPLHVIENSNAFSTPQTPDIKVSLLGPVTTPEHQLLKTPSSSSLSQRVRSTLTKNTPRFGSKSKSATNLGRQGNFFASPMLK

[2] = NIH-3T3 fibroblast cytotoxicity, dose response, cytotoxicity control, cell-based, fluorescence, Alamar Blue, secondary assay (AID 2327); format: functional;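 note: NIH-3T3 mouse fibroblasts cultured with fluconazole at 8 µg/mL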
[3] = fluconazole-exposed Candida albicans growth modulators – fluorescence, retest, confirmation (AID 2467); format: functional, cell-based
Fatty acid synthase [4] = biological target: T2, Fatty acid synthase (Homo sapiens, UniProt P49327); assay: inhibition of human FAS-TE enzyme activity – biochemical, kinetic fluorescence intensity, dose response (AID 624326); format: functional;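 note: rate of fluorescence rise from hydrolysis of a fluorogenic O-methyl fluorescein ester substrate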
Fatty acid synthase [5] = biological target: T2, Fatty acid synthase; assay: inhibition of human FAS-TE enzyme activity – biochemical, endpoint fluorescence intensity, uHTS hits, dose response (AID 624327); format: functional;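 note: fluorescence from hydrolysis of an O-methyl fluorescein acyl ester substrate by the enzyme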
[6] = biological target: Luciferin 4-monooxygenase (Photinus pyralis, UniProt P08659); assay: inhibition of purified Photinus pyralis luciferase – biochemical, luminescence, dose response (AID 1891)
[7] = Luminescence Cell-Based Dose Confirmation HTS to Identify Inhibitors of Platelet Dense Granule Release. [Related pubchem assays: 1663 (Primary HTS), 1678 (Summary of Project)]; format: functional
INS1 = assay: INS-1E survival protection against cytokine death – cell-based, luminescence, retest, dose response (AID 449756); format: functional; conditions: Rattus norvegicus;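 note: cell death triggered by IL-1 beta plus TNF-alpha plus IFN-gamma mixture; protective hits raise ATP signal compared with cytokine alone wells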
BJ [8] = assay: cells; format: functional, cell-based; conditions: Homo sapiens
BJ [9] = assay: BJ-TERT fibroblast viability loss – cell-based, RAS-independent, luminescence, dose response (AID 1933); format: functional; conditions: Homo sapiens
BJ [10] = assay: BJ-TERT-LT-ST fibroblast viability loss – cell-based, RAS-independent, luminescence, dose response (AID 1935); format: functional; conditions: Homo sapiens;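 note: BJ fibroblasts immortalized with TERT plus LT and ST oncogenes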
[11] = DRD fibroblast viability loss – cell-based, non-viral oncogenic, luminescence, dose response (AID 1934); format: functional; conditions: Homo sapiens
[12] = viability of PTEN-deleted HCT116 cells – cell-based, HCT116 PTEN knockout, dose response (AID 1047); format: functional;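 note: HCT116 colon tumor cells with PTEN knocked out; cells exposed to compound for 60 hours before readout; potency for loss of cell viability measured by luminescence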
[13] = viability of HCT116 lacking mutant beta-catenin – cell-based, human colon tumor, dose response (AID 1045); format: functional;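 note: HCT116 colon tumor cells with beta catenin knocked out; cells exposed to compound for 60 hours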
[14] = biological target: Heat shock protein HSP 90-alpha (Homo sapiens, UniProt P07900); format: functional, organism-based
[15] = microbe, parasite or virus in culture; format: functional; conditions: Mycobacterium tuberculosis
Streptococcus = assay: GAS UMAA2166 growth inhibition – luminescence, BacTiterGlo, counter-screen for streptokinase expression inhibitor project, dose response (AID 1915); format: functional, organism-based;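 note: potency for reduction of bacterial viability or growth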
Streptokinase A = biological target: T3, Streptokinase A (Streptococcus pyogenes serotype M1, UniProt P10520); assay: viability-normalized secreted streptokinase activity reduction – plasminogen activation absorbance, OD405, dose response (AID 1914); format: functional, Streptococcus pyogenes M1 GAS;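 note: secreted streptokinase activity via plasminogen activation per viability signal from cell pellet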
T3 sequence (P10520 whole entry): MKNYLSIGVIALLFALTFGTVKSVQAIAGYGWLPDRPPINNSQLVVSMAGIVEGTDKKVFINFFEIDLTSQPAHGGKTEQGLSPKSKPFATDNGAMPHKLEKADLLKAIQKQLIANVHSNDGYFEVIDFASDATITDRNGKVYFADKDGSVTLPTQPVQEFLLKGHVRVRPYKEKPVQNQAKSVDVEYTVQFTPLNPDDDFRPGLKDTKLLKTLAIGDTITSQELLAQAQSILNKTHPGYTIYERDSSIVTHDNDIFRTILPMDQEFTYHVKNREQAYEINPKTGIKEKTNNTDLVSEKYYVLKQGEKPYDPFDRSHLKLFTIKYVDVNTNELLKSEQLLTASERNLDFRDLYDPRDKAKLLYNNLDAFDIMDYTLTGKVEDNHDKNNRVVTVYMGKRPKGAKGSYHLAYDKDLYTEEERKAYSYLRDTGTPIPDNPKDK

[16] = tested on: Streptococcus sp. 'group A'; assay: Streptococcus pyogenes SK(-)GAS viability under kanamycin – luminescence, BacTiterGlo, confirmation, counter-screen for streptokinase expression inhibitor project, dose response (AID 1900); format: functional, organism-based
[17] = biological target: T4, Corticotropin-releasing factor receptor 2/Corticotropin-releasing factor-binding protein (Homo sapiens, UniProt P24387+Q13324); assay: activators of CRF receptor 2 with binding protein – uHTS hits, confirmation (AID 602473); format: functional; conditions: read-out: EC50_Mean
T4 sequence (Q13324 whole entry): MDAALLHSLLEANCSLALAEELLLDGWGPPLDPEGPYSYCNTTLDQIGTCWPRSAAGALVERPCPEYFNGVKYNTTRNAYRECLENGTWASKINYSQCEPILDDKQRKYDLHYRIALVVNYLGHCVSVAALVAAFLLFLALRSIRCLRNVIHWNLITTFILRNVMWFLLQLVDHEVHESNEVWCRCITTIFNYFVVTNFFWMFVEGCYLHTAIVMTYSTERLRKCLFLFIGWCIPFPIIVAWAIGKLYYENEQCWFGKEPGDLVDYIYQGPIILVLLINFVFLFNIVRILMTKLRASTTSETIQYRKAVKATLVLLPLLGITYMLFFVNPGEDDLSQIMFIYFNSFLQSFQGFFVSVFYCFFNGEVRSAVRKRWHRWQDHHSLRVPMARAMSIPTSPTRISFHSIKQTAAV
T4 sequence (P24387 whole entry): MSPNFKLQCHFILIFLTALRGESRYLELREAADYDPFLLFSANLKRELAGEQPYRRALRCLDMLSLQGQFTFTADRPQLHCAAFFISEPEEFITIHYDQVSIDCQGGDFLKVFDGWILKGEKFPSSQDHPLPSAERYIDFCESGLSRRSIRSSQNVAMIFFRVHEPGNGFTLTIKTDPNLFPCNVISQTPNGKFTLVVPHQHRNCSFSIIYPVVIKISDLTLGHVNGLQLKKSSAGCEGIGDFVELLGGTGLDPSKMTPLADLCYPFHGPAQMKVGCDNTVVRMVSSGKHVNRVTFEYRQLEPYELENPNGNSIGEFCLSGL

[18] = biological target: T4, Corticotropin-releasing factor receptor 2/Corticotropin-releasing factor-binding protein; assay: Dose Response confirmation of uHTS hits for small molecule antagonists of the CRF-binding protein and CRF-R2 receptor complex.; format: functional; conditions: read-out: IC50_Mean

T2 sequence (P49327 whole entry): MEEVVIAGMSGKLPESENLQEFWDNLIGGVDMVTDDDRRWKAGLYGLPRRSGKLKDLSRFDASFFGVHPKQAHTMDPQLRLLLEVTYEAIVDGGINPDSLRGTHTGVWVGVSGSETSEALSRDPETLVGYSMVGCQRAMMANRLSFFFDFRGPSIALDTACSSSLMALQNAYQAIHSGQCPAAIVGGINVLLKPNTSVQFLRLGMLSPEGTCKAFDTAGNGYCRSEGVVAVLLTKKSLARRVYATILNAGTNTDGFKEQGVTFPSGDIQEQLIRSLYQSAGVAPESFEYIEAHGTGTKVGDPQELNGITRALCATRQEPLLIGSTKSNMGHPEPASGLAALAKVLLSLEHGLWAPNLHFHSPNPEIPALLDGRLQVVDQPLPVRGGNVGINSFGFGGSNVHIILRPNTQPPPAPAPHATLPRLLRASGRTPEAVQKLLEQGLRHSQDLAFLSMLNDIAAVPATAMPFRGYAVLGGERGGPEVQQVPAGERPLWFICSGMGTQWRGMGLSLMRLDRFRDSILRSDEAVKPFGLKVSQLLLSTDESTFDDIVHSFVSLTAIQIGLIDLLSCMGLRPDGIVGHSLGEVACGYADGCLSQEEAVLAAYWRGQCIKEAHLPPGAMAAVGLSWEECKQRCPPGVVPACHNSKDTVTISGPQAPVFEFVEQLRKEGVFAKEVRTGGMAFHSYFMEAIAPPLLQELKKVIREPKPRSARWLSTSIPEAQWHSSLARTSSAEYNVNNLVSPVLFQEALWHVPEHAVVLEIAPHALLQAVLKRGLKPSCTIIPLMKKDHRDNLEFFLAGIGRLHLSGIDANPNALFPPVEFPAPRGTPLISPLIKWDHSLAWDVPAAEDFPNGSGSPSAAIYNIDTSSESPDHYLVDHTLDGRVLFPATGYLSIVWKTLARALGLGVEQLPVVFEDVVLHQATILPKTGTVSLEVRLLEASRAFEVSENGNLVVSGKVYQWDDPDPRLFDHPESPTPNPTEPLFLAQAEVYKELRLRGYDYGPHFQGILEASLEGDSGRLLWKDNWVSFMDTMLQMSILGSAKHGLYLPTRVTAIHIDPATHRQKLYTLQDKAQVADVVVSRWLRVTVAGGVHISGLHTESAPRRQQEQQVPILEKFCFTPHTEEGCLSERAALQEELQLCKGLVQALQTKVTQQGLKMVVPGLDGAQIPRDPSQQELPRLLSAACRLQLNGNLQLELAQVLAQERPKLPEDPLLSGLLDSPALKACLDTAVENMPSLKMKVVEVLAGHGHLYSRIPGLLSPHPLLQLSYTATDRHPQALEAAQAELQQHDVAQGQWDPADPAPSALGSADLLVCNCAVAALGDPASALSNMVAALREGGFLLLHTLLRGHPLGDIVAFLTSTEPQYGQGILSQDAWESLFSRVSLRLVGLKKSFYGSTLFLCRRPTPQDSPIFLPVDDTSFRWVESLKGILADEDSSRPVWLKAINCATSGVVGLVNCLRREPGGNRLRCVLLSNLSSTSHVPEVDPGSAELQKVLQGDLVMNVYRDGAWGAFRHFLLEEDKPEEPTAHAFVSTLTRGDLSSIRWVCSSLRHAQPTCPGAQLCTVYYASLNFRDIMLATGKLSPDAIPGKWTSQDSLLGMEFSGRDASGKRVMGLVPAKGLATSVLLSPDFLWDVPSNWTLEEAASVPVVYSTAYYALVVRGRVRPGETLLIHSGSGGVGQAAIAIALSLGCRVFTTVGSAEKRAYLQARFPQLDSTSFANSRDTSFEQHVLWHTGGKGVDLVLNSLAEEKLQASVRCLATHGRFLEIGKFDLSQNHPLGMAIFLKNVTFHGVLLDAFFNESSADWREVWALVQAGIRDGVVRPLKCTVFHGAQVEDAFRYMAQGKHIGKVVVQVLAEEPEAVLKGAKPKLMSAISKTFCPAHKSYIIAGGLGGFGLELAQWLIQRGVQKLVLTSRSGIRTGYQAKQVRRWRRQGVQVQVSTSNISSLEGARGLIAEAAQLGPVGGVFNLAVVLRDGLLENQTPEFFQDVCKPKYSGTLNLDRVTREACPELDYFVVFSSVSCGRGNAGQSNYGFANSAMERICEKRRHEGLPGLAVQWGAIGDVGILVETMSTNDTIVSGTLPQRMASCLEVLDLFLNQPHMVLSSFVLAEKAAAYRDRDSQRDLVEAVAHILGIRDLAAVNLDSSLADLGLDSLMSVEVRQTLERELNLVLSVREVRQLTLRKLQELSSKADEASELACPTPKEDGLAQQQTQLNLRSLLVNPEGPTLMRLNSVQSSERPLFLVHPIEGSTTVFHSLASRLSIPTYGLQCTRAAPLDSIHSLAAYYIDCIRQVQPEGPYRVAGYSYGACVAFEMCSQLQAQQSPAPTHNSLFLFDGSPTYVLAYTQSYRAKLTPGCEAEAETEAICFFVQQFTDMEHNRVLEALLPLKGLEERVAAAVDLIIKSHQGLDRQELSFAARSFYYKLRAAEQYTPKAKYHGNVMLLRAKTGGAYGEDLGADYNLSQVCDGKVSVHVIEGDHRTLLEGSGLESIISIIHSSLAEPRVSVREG
Sequence of Luciferin 4-monooxygenase (P08659 whole entry): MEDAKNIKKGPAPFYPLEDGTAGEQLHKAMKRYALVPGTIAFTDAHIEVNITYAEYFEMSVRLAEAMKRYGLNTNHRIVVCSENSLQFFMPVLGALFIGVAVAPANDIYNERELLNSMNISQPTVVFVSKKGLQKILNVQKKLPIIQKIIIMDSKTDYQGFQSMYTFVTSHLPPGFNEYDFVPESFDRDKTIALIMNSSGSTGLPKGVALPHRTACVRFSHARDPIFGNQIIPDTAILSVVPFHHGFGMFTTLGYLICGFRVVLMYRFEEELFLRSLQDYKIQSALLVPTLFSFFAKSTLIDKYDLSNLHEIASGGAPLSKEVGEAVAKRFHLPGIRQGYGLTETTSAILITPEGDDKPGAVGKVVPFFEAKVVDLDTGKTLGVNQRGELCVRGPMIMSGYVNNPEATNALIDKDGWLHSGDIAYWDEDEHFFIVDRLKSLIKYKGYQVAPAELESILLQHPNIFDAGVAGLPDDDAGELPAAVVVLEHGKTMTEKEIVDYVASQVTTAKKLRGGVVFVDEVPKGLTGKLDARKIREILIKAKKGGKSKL

With `COc1ccc(Cl)cc1NC(=O)CN(C)C(=O)Cn1[nH]c(=O)c2ccccc2c1=O` as the compound, how does the IC50 (H9c2) read?
The IC50 was 20.7 µM (active).

For `CCOC(=O)c1[nH]c2ccc(C)cc2c1N`, which IC50 [1] is on record?
Its IC50 is 24.1 µM (active).

What about the EC50 [2] of the same compound?
Its EC50 is > 160 µM (inconclusive).

What about the EC50 [3] of the same compound?
The EC50 was > 38 µM (not active).

What does the source list for `O=C(COC(=O)c1cc([N+](=O)[O-])ccc1N1CCOCC1)Nc1ccccc1OC(F)F`?
IC50 (Fatty acid synthase [4]): 5.1 µM (active); IC50 (Fatty acid synthase [5]): 4.73 µM (active)

Which results are given for `Cc1ccc(OCCC(=O)OCc2csc(CC(=O)Nc3ccccc3C)n2)cc1`?
EC50 [6]: > 112 µM (not active); EC50 [7]: > 112 µM (not active)

With `CCn1cc(/C=C/c2cc[n+](C)cc2)c2ccccc21` as the compound, how does the AC50 (INS1) read?
The AC50 was 4.58 µM (active).

And the EC50 (BJ [8])?
Its EC50 is > 150 µM (not active).

What about the EC50 (BJ [9]) of the same compound?
Its EC50 is 23.8 µM (active).

What about the EC50 [2] of the same compound?
The EC50 was > 150 µM (inconclusive).

And the EC50 [3]?
Its EC50 is 0.946 µM (active).

And the EC50 (BJ [10])?
Its EC50 is > 150 µM (not active).

What about the EC50 [11] of the same compound?
Its EC50 is > 150 µM (not active).

What does the source list for `CCN1C/C(=C\c2cccc([N+](=O)[O-])c2)C(=O)/C(=C/c2cccc([N+](=O)[O-])c2)C1`?
EC50 [12]: 0.117 µM (active); EC50 [13]: 0.187 µM (active); AC50 [14]: 8.11 µM (active)

With `O=C(Nc1ccccc1)c1cccc(N2CCCC2=O)c1` as the compound, how does the EC50 [6] read?
Its EC50 is > 112 µM (not active).

What about the EC50 [7] of the same compound?
The EC50 was 45.5 µM (active).

For `CCOC(=O)c1cc2c(=O)n3ccccc3nc2n(Cc2ccco2)/c1=N/C(=O)c1cccnc1`, which IC50 (H9c2) is on record?
Its IC50 is 24.3 µM (active).

Which AC50 [14] does the source give for `O=C(OCC(=O)N1CCN(C(=O)c2ccco2)CC1)c1cc(-c2ccccc2)nc2ccccc12` here?
Its AC50 is 4.24 µM (active).

Which CC50 [15] does the source give for `COc1ccc(OCC(=O)Nc2c(C(=O)N(CCN(C)C)Cc3ccco3)oc3ccccc23)cc1` here?
Its CC50 is > 40 µM (active).

What about the EC50 [2] of the same compound?
The EC50 was > 160 µM (inactive).

What about the EC50 [3] of the same compound?
Its EC50 is > 38 µM (not active).

Which results are given for `O=C(NCc1ccc(C(F)(F)F)cc1)C1CC(c2c(Cl)cccc2Cl)=NO1` (configuration not stated)?
IC50 (Fatty acid synthase [4]): 9.63 µM (active); IC50 (Fatty acid synthase [5]): 10.3 µM (active)

Which results are given for `Cc1ccc(/C=N/NC(=O)C2=NNC(c3ccccc3)(c3ccccc3)C2)c(O)c1`?
EC50 [2]: 8.56 µM (active); EC50 (Streptococcus): > 150 µM (not active); EC50 [3]: 2.3 µM (active); EC50 (Streptokinase A): > 150 µM (not active); EC50 [16]: 2.9 µM (active)

What does the source list for `COc1ccc([N+](=O)[O-])cc1NC(=O)COC(=O)/C=C/c1ccco1`?
IC50 (Fatty acid synthase [4]): 8.49 µM (active); IC50 (Fatty acid synthase [5]): 5.11 µM (active)

What does the source list for `O=C(NCCCc1ccccc1)c1cccc([N+](=O)[O-])c1`?
IC50 (Fatty acid synthase [4]): 4.33 µM (active); IC50 (Fatty acid synthase [5]): 5.56 µM (active); EC50 [17]: > 53 µM (inactive); IC50 [18]: > 47.1 µM (inactive)

With `CN(C)c1oc(-c2ccco2)nc1C#N` as the compound, how does the EC50 [6] read?
The EC50 was > 112 µM (not active).

And the EC50 [7]?
Its EC50 is > 112 µM (not active).

What does the source list for `O=C(NCCC(=O)N(CCc1ccccc1)Cc1ccccc1)c1ccc([N+](=O)[O-])cc1`?
IC50 (Fatty acid synthase [4]): 8.92 µM (active); IC50 (Fatty acid synthase [5]): 8.21 µM (active)
